PubChem BioAssay AID2060896 (Molecular Pharmacology Branch, DTP, NCI, 2025)

Tested on: 941728-121-R-J1-PDC complex spheroid viability
Assay: Anticancer human tumor 941728-121-R-J1-PDC patient-derived lung adenocarcinoma cell line growth inhibition [RAS]
Settings: for IC50: curve of first compound; for viability, T/C: stronger effect = lower value
In short: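 Agents were tested in combination matrices in half-log decrements from a top concentration at or near clinical Cmax (10 microM if undetermined). Targets were multi-cell spheroids of tumour lines plus HUVEC and MSC stromal cells.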

[1] = second compound 0.000949 µM, first compound 0.00316 µM
[2] = second compound 0.000949 µM, first compound 0.01 µM
[3] = second compound 0.000949 µM, first compound 0.0316 µM
[4] = second compound 0.000949 µM, first compound 0.1 µM
[5] = second compound 0.003 µM, first compound 0.00316 µM
[6] = second compound 0.003 µM, first compound 0.01 µM
[7] = second compound 0.003 µM, first compound 0.0316 µM
[8] = second compound 0.003 µM, first compound 0.1 µM
[9] = second compound 0.00949 µM, first compound 0.00316 µM
[10] = second compound 0.00949 µM, first compound 0.01 µM
[11] = second compound 0.00949 µM, first compound 0.0316 µM
[12] = second compound 0.00949 µM, first compound 0.1 µM
[13] = second compound 0.03 µM, first compound 0.00316 µM
[14] = second compound 0.03 µM, first compound 0.01 µM
[15] = second compound 0.03 µM, first compound 0.0316 µM
[16] = second compound 0.03 µM, first compound 0.1 µM
[17] = second compound 0.0949 µM, first compound 0.00316 µM
[18] = second compound 0.0949 µM, first compound 0.01 µM
[19] = second compound 0.0949 µM, first compound 0.0316 µM
[20] = second compound 0.0949 µM, first compound 0.1 µM
[21] = second compound 0.3 µM, first compound 0.00316 µM
[22] = second compound 0.3 µM, first compound 0.01 µM
[23] = second compound 0.3 µM, first compound 0.0316 µM
[24] = second compound 0.3 µM, first compound 0.1 µM
[25] = second compound 0.000949 µM, first compound 0.316 µM
[26] = second compound 0.000949 µM, first compound 1 µM
[27] = second compound 0.000949 µM, first compound 3.16 µM
[28] = second compound 0.000949 µM, first compound 10 µM
[29] = second compound 0.003 µM, first compound 0.316 µM
[30] = second compound 0.003 µM, first compound 1 µM
[31] = second compound 0.003 µM, first compound 3.16 µM
[32] = second compound 0.003 µM, first compound 10 µM
[33] = second compound 0.00949 µM, first compound 0.316 µM
[34] = second compound 0.00949 µM, first compound 1 µM
[35] = second compound 0.00949 µM, first compound 3.16 µM
[36] = second compound 0.00949 µM, first compound 10 µM
[37] = second compound 0.03 µM, first compound 0.316 µM
[38] = second compound 0.03 µM, first compound 1 µM
[39] = second compound 0.03 µM, first compound 3.16 µM
[40] = second compound 0.03 µM, first compound 10 µM
[41] = second compound 0.0949 µM, first compound 0.316 µM
[42] = second compound 0.0949 µM, first compound 1 µM
[43] = second compound 0.0949 µM, first compound 3.16 µM
[44] = second compound 0.0949 µM, first compound 10 µM
[45] = second compound 0.3 µM, first compound 0.316 µM
[46] = second compound 0.3 µM, first compound 1 µM
[47] = second compound 0.3 µM, first compound 3.16 µM
[48] = second compound 0.3 µM, first compound 10 µM
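Also: spheroids exposed to compounds for 7 days before readout.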
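For viability, T/C in this document: 100% = DMSO vehicle control viability.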

CC(C)n1nc(-c2ccc3oc(N)nc3c2)c2c(N)ncnc21 + CCn1c(-c2cc(N3CCN(C)CC3)cnc2C(C)OC)c2c3cc(ccc31)-c1csc(n1)CC(NC(=O)C1CC1C)C(=O)N1CCCC(N1)C(=O)OCC(C)(C)C2
IC50 (second compound 0.000949 µM): < 0.316 nM
IC50 (second compound 0.003 µM): < 0.316 nM
IC50 (second compound 0.00949 µM): < 0.316 nM
IC50 (second compound 0.03 µM): < 0.316 nM
IC50 (second compound 0.0949 µM): < 0.316 nM
IC50 (second compound 0.3 µM): < 0.316 nM
viability, T/C (second compound 0.000949 µM, first compound 0.000316 µM): 25.5%
viability, T/C (second compound 0.000949 µM, first compound 0.001 µM): 27.6%
viability, T/C [1]: 18.6%
viability, T/C [2]: 20.2%
viability, T/C [3]: 16.9%
viability, T/C [4]: 11.1%
viability, T/C (second compound 0.003 µM, first compound 0.000316 µM): 24.6%
viability, T/C (second compound 0.003 µM, first compound 0.001 µM): 20.8%
viability, T/C [5]: 16%
viability, T/C [6]: 14.4%
viability, T/C [7]: 10.9%
viability, T/C [8]: 8.48%
viability, T/C (second compound 0.00949 µM, first compound 0.000316 µM): 17.6%
viability, T/C (second compound 0.00949 µM, first compound 0.001 µM): 16%
viability, T/C [9]: 16.3%
viability, T/C [10]: 11.6%
viability, T/C [11]: 8.78%
viability, T/C [12]: 5.45%
viability, T/C (second compound 0.03 µM, first compound 0.000316 µM): 13.4%
viability, T/C (second compound 0.03 µM, first compound 0.001 µM): 14.6%
viability, T/C [13]: 13.4%
viability, T/C [14]: 10.7%
viability, T/C [15]: 6.44%
viability, T/C [16]: 6.86%
viability, T/C (second compound 0.0949 µM, first compound 0.000316 µM): 12.7%
viability, T/C (second compound 0.0949 µM, first compound 0.001 µM): 14.2%
viability, T/C [17]: 12.8%
viability, T/C [18]: 11.6%
viability, T/C [19]: 6.3%
viability, T/C [20]: 6.4%
viability, T/C (second compound 0.3 µM, first compound 0.000316 µM): 13.4%
viability, T/C (second compound 0.3 µM, first compound 0.001 µM): 13.9%
viability, T/C [21]: 12.9%
viability, T/C [22]: 11.2%
viability, T/C [23]: 7.62%
viability, T/C [24]: 7.03%

CC1(O)CCCC1n1c(=O)c(C(F)F)cc2cnc(NC3CCN(S(C)(=O)=O)CC3)nc21 (stereo not drawn) + CCn1c(-c2cc(N3CCN(C)CC3)cnc2C(C)OC)c2c3cc(ccc31)-c1csc(n1)CC(NC(=O)C1CC1C)C(=O)N1CCCC(N1)C(=O)OCC(C)(C)C2
IC50 (second compound 0.000949 µM): < 31.6 nM
IC50 (second compound 0.003 µM): < 31.6 nM
IC50 (second compound 0.00949 µM): < 31.6 nM
IC50 (second compound 0.03 µM): < 31.6 nM
IC50 (second compound 0.0949 µM): < 31.6 nM
IC50 (second compound 0.3 µM): < 31.6 nM
viability, T/C [3]: 28.6%
viability, T/C [4]: 30.3%
viability, T/C [25]: 24.8%
viability, T/C [26]: 38.3%
viability, T/C [27]: 34.9%
viability, T/C [28]: 31.3%
viability, T/C [7]: 24.4%
viability, T/C [8]: 20.1%
viability, T/C [29]: 18.4%
viability, T/C [30]: 22.3%
viability, T/C [31]: 23.3%
viability, T/C [32]: 26.9%
viability, T/C [11]: 16.5%
viability, T/C [12]: 13.6%
viability, T/C [33]: 15.9%
viability, T/C [34]: 17.5%
viability, T/C [35]: 15.6%
viability, T/C [36]: 28.4%
viability, T/C [15]: 13.4%
viability, T/C [16]: 12.6%
viability, T/C [37]: 13.5%
viability, T/C [38]: 14.4%
viability, T/C [39]: 9.96%
viability, T/C [40]: 27.3%
viability, T/C [19]: 11.1%
viability, T/C [20]: 14.5%
viability, T/C [41]: 14.3%
viability, T/C [42]: 14.8%
viability, T/C [43]: 9.56%
viability, T/C [44]: 27.7%
viability, T/C [23]: 10.4%
viability, T/C [24]: 11.6%
viability, T/C [45]: 13.3%
viability, T/C [46]: 15.2%
viability, T/C [47]: 12.2%
viability, T/C [48]: 23.8%

CCN1CCN(Cc2ccc(Nc3ncc(F)c(-c4cc(F)c5nc(C)n(C(C)C)c5c4)n3)nc2)CC1 + CCn1c(-c2cc(N3CCN(C)CC3)cnc2C(C)OC)c2c3cc(ccc31)-c1csc(n1)CC(NC(=O)C1CC1C)C(=O)N1CCCC(N1)C(=O)OCC(C)(C)C2
IC50 (second compound 0.000949 µM): < 3.16 nM
IC50 (second compound 0.003 µM): < 3.16 nM
IC50 (second compound 0.00949 µM): < 3.16 nM
IC50 (second compound 0.03 µM): < 3.16 nM
IC50 (second compound 0.0949 µM): < 3.16 nM
IC50 (second compound 0.3 µM): < 3.16 nM
viability, T/C [1]: 27%
viability, T/C [2]: 29.4%
viability, T/C [3]: 18.9%
viability, T/C [4]: 27.1%
viability, T/C [25]: 23.3%
viability, T/C [26]: 16.6%
viability, T/C [5]: 22.8%
viability, T/C [6]: 19.8%
viability, T/C [7]: 14.4%
viability, T/C [8]: 18.9%
viability, T/C [29]: 17.7%
viability, T/C [30]: 9.4%
viability, T/C [9]: 15.1%
viability, T/C [10]: 13.4%
viability, T/C [11]: 13.7%
viability, T/C [12]: 11.1%
viability, T/C [33]: 12.1%
viability, T/C [34]: 10.4%
viability, T/C [13]: 13.2%
viability, T/C [14]: 14.1%
viability, T/C [15]: 11.8%
viability, T/C [16]: 10.1%
viability, T/C [37]: 6.16%
viability, T/C [38]: 11.3%
viability, T/C [17]: 13.4%
viability, T/C [18]: 11.8%
viability, T/C [19]: 10.1%
viability, T/C [20]: 9.14%
viability, T/C [41]: 7.16%
viability, T/C [42]: 9.08%
viability, T/C [21]: 11.3%
viability, T/C [22]: 11.9%
viability, T/C [23]: 11.7%
viability, T/C [24]: 8.41%
viability, T/C [45]: 6.3%
viability, T/C [46]: 10.6%

C[C@@H](NC(=O)c1ncnc(N)c1Cl)c1ncc(C(=O)Nc2cc(C(F)(F)F)c(Cl)cn2)s1 + CCn1c(-c2cc(N3CCN(C)CC3)cnc2C(C)OC)c2c3cc(ccc31)-c1csc(n1)CC(NC(=O)C1CC1C)C(=O)N1CCCC(N1)C(=O)OCC(C)(C)C2
IC50 (second compound 0.000949 µM): < 31.6 nM
IC50 (second compound 0.003 µM): < 31.6 nM
IC50 (second compound 0.00949 µM): < 31.6 nM
IC50 (second compound 0.03 µM): < 31.6 nM
IC50 (second compound 0.0949 µM): < 31.6 nM
IC50 (second compound 0.3 µM): < 31.6 nM
viability, T/C [3]: 28.7%
viability, T/C [4]: 30.9%
viability, T/C [25]: 22.4%
viability, T/C [26]: 34%
viability, T/C [27]: 33.6%
viability, T/C [28]: 24.5%
viability, T/C [7]: 27.8%
viability, T/C [8]: 24.4%
viability, T/C [29]: 22.4%
viability, T/C [30]: 24.9%
viability, T/C [31]: 27.9%
viability, T/C [32]: 20%
viability, T/C [11]: 19.1%
viability, T/C [12]: 15.5%
viability, T/C [33]: 21.6%
viability, T/C [34]: 21.9%
viability, T/C [35]: 19.7%
viability, T/C [36]: 17.9%
viability, T/C [15]: 14.1%
viability, T/C [16]: 16.5%
viability, T/C [37]: 17.1%
viability, T/C [38]: 15.4%
viability, T/C [39]: 15.4%
viability, T/C [40]: 14.9%
viability, T/C [19]: 13.6%
viability, T/C [20]: 15.7%
viability, T/C [41]: 14.3%
viability, T/C [42]: 14.3%
viability, T/C [43]: 11.7%
viability, T/C [44]: 13.6%
viability, T/C [23]: 13.8%
viability, T/C [24]: 13.7%
viability, T/C [45]: 15.6%
viability, T/C [46]: 13.8%
viability, T/C [47]: 12.3%
viability, T/C [48]: 11.9%
